Tests used:
Format in all cases: in vivo
Set-up in all cases: key: 5: completely killed; 4: seriously injured; 3: considerably injured; 2: somewhat injured; 1: slightly injured; 0: not injured (normally grown)
Conditions in all cases: 4 weeks after treatment
[1] = tested on: nobie (barnyardgrass, Echinochloa spp.); test: Experiment 1 flooded soil treatment: nobie
Excerpt: (§1) Paddy soil (clay loam) was put into a pot so as to have a surface area of 1/15500 ares. Uniformly mixed seeds of several kinds of weeds, viz., nobie (barnyardgrass, Echinochloa spp.), broad-leaved weeds, hotarui (bulrush, Scirpus juncoides) and tamagayatsuri (small-flowered umbrellaplant, Cyperus difformis), were sown in the surface layer of the soil in each pot, and then paddy rice seedlings at the two- or three-leaved stage were transplanted into each pot to a depth of 2 cm, and water was fed into each pot so as to provide a 3 cm deep water layer on the soil surface. After 3 days, in other words at the initial stage of germination of nobie (barnyardgrass, Echinochloa spp.), a predetermined amount of a selected compound obtained in a manner analogous to Example 8 in the form of diluted aqueous solution was dropped into the water layer in each pot. After that, the pots were kept in a glass chamber to allow the paddy rice and the weeds to grow, and after the lapse of 4 weeks from the treatment with the selected compounds, the herbicidal effects and the degree of injury to the paddy rice were evaluated. In the table, the herbicidal effects and the degree of injury to the paddy rice are indicated by numerical values, which have the following meaning.
(§2) 0: not injured (normally grown)

[2] = tested on: paddy rice; test: Experiment 1 flooded soil treatment: injury to paddy rice
Excerpt: as §1, §2

[3] = tested on: cockspur (Panicum crus-galli); test: Experiment 2 foliage treatment: cockspur
Method: (§3) Upon seedling stage (two- or three-leaved stage) of rice, cockspur (Panicum crus-galli), garden radish, aobiyu (slender amaranth, Amaranthus viridis) and mehishiba (henry crabgrass, Digitaria cliaris) which were grown on a cultivated soil put in pots of 1/15500 ares, a selected compound obtained in a manner analogous to Example 8, in suspended wettable powder, was sprayed to each plant. After that, the pots were kept in a glass chamber to allow each plant to grow, and after the lapse of 4 weeks from the treatment with the selected compounds the herbicidal effects were evaluated. The evaluation of the herbicidal effects was similarly conducted as to that of Experiment 1.

[4] = tested on: garden radish; test: Experiment 2 foliage treatment: garden radish
Method: as §3

[5] = tested on: mehishiba (henry crabgrass, Digitaria cliaris); test: Experiment 2 foliage treatment: mehishiba
Method: as §3

[6] = tested on: aobiyu (slender amaranth, Amaranthus viridis); test: Experiment 2 foliage treatment: aobiyu
Method: as §3

[7] = tested on: tamagayatsuri (small-flowered umbrellaplant, Cyperus difformis); test: Experiment 1 flooded soil treatment: tamagayatsuri
Excerpt: as §1, §2

[8] = tested on: broad-leaved weeds; test: Experiment 1 flooded soil treatment: broad-leaved weeds
Excerpt: as §1, §2

[9] = tested on: hotarui (bulrush, Scirpus juncoides); test: Experiment 1 flooded soil treatment: hotarui
Excerpt: as §1, §2

[10] = tested on: rice; test: Experiment 2 foliage treatment: rice
Method: as §3

Compound | Herbicidal Effect nobie ([1]; 12.5 g/10a) | Herbicidal Effect nobie ([1]; 25 g/10a) | Injury of Paddy ([2]; 12.5 g/10a) | Injury of Paddy ([2]; 25 g/10a) | Herbicidal Effect cockspur ([3]; 40 g/10a) | Herbicidal Effect cockspur ([3]; 80 g/10a) | Herbicidal Effect garden radish ([4]; 40 g/10a) | Herbicidal Effect garden radish ([4]; 80 g/10a) | Herbicidal Effect mehishiba ([5]; 40 g/10a) | Herbicidal Effect mehishiba ([5]; 80 g/10a) | Herbicidal Effect aobiyu ([6]; 40 g/10a) | Herbicidal Effect aobiyu ([6]; 80 g/10a) | Herbicidal Effect tamagayatsuri ([7]; 12.5 g/10a) | Herbicidal Effect tamagayatsuri ([7]; 25 g/10a) | Herbicidal Effect broad-leaved weed ([8]; 12.5 g/10a) | Herbicidal Effect broad-leaved weed ([8]; 25 g/10a) | Herbicidal Effect hotarui ([9]; 12.5 g/10a) | Herbicidal Effect hotarui ([9]; 25 g/10a) | Herbicidal Effect rice ([10]; 40 g/10a) | Herbicidal Effect rice ([10]; 80 g/10a)
CCOC(=O)C1=C(C(=O)N(C(C)=O)c2cc(SCC(=O)OC)c(Cl)cc2F)CCCC1 [Compound No. 12] | 5 | 5 | 0.5 | 0.5 | 1 | 1 | 5 | 5 | 1 | 1 | 5 | 5 | 5 | 5 | 5 | 5 | 4 | 5 | 1 | 1
C#CCOC(=O)C1=C(C(=O)N(C(C)=O)c2cc(SCC(=O)OC)c(Cl)cc2F)CCCC1 [compound 15] | 5 | 5 | 0 | 0.5 | 1 | 1 | 5 | 5 | 1 | 1 | 4.5 | 5 | 4 | 5 | 5 | 5 | 4 | 4 | 1 | 1
CCC(=O)N(C(=O)C1=C(C(=O)OC)CCCC1)c1cc(SCC(=O)OC)c(Cl)cc1F [compound 16] | 5 | 5 | 0.5 | 0.5 | 1 | 1 | 5 | 5 | 1 | 1 | 5 | 5 | 5 | 5 | 5 | 5 | 5 | 5 | 1 | 1
CCCCCOC(=O)C1=C(C(=O)N(C(=O)CC)c2cc(SCC(=O)OC)c(Cl)cc2F)CCCC1 [compound 17] | 5 | 5 | 0 | 0.5 | 2 | 2 | 5 | 5 | 1 | 1 | 5 | 5 | 5 | 5 | 5 | 5 | 4 | 5 | 1 | 1
COC(=O)CSc1cc(N(C(=O)C2=C(C(=O)OC)CCCC2)C(=O)c2cccc(F)c2)c(F)cc1Cl [compound 19] | 5 | 5 | 0 | 0.5 | 1 | 1 | 4 | 5 | 1 | 1 | 5 | 5 | 5 | 5 | 5 | 5 | 5 | 5 | 1 | 1

— patent US6337417B1, “N-phenyltetrahydrophthalamic acid derivatives, methods of producing same, and herbicides containing same as effective components” (Central Glass Co., Ltd., priority 1994, dated 2002)
